Experiments:
Assay type in all cases: in vivo
[1] = system: Anopheles gambiae (homocygus kdr); test: Anopheles test (ANPHGB surface treatment); settings: for knock-down activity: 100 mg/m^2, two hours after contact, exposition 30 minutes
Description: Anopheles Test (ANPHGB Surface Treatment) Solvent: Acetone
(§1) To produce a suitable preparation of active compound, the active compound is dissolved in acetone (2 mg/ml). The active compound preparation is pipetted onto a glazed tile and, after drying, adult mosquitoes of the species Anopheles gambiae (homocygus kdr) are placed onto the treated tile. The exposition time is 30 minutes.
(§2) Two hours after contact to the treated surface, the knock-down proportion of the test animals in % is determined.
24 hours after contact to the treated surface, the mortality in % is determined. Here, 100% means that all mosquitoes have been killed; 0% means that none of the mosquitoes has been killed.

[2] = system: greenhouse red spider mite (Tetranychus urticae); test: Tetranychus test; OP-resistant (TETRUR spray treatment); settings: 500 g/ha, spray, after 6 days; for pest or weed control at 500 g/ha: Tetranychus urticae, 144 h, read-out: activity (spider mites killed)
Description: Tetranychus Test; OP-Resistant (TETRUR Spray Treatment) Solvents: 78.0 parts by weight of acetone • • 1.5 parts by weight of dimethylformamide Emulsifier: 0.5 part by weight of alkylaryl polyglycol ether
(§3) To produce a suitable preparation of active compound, 1 part by weight of active compound is mixed with the stated amounts of solvents and emulsifier, and the concentrate is diluted with emulsifier-containing water to the desired concentration.
Discs of bean leaves (Phaseolus vulgaris) infested by all stages of the greenhouse red spider mite (Tetranychus urticae) are sprayed with an active compound preparation of the desired concentration.
After 6 days, the activity in % is determined. 100% means that all spider mites have been killed; 0% means that none of the spider mites have been killed.

[3] = system: caterpillars of the army worm (Spodoptera frugiperda); test: Spodoptera frugiperda test (SPODFR spray treatment); settings: 500 g/ha, spray, after 7 days; for pest or weed control at 500 g/ha: Spodoptera frugiperda, 168 h, read-out: activity (caterpillars killed)
Description: Spodoptera frugiperda Test (SPODFR Spray Treatment) Solvents: 78.0 parts by weight of acetone • • 1.5 parts by weight of dimethylformamide Emulsifier: 0.5 part by weight of alkylaryl polyglycol ether
as §3
Discs of maize leaves (Zea mays) are sprayed with an active compound preparation of the desired concentration and, after drying, populated with caterpillars of the army worm (Spodoptera frugiperda) besetzt.
After 7 days, the activity in % is determined. 100% means that all caterpillars have been killed; 0% means that none of the caterpillars have been killed.

Aedes aegypti = test: Aedes test (AEDSAE surface treatment); settings: for knock-down activity: 100 mg/m^2, two hours after contact, exposition 30 minutes; for mortality at 100 mg/m2: Aedes aegypti, read-out: activity (mortality in %)
Description: Aedes Test (AEDSAE Surface Treatment)
as §1, with “Aedes aegypti” for “Anopheles gambiae (homocygus kdr)”
as §2
24 hours after contact to the treated surface, the mortality in % is determined Here, 100% means that all mosquitoes have been killed; 0% means that none of the mosquitoes has been killed.

[4] = system: green peach aphid (Myzus persicae); test: Myzus test (MYZUPE spray treatment); settings: 500 g/ha, spray, after 6 days
Description: Myzus Test (MYZUPE Spray Treatment) Solvents: 78 parts by weight of acetone • • 1.5 parts by weight of dimethylformamide Emulsifier: 0.5 part by weight of alkylaryl polyglycol ether
as §3
Discs of Chinese cabbage leaves (Brassica pekinensis) which are infested by all stages of the green peach aphid (Myzus persicae) are sprayed with an active compound preparation of the desired concentration.
After 6 days, the activity in % is determined. 100% means that all aphids have been killed; 0% means that none of the aphids have been killed.

[5] = system: larvae of the mustard beetle (Phaedon cochleariae); test: Phaedon test (PHAECO spray treatment); settings: 500 g/ha, spray, after 7 days
Description: Phaedon Test ([…] Spray Treatment) Solvents: 78.0 parts by weight of acetone • • 1.5 parts by weight of dimethylformamide Emulsifier: 0.5 part by weight of alkylaryl polyglycol ether To produce a suitable preparation of active compound, 1 part by weight of active compound is mixed with the stated amounts of solvents and emulsifiers, and the concentrate is diluted with emulsifier-containing water to the desired concentration. Discs of Chinese cabbage leaves (Brassica pekinensis) are sprayed with an active compound preparation of the desired concentration and, after drying, populated with larvae of the mustard beetle (Phaedon cochleariae).

[6] = system: cat fleas (Ctenocephalides felis, fully sensitive laboratory strain); test: Contact test against fleas in-vitro (CTECFE contact); settings: 500 g/ha, after 48 h
Description: Contact Test Against Fleas In-Vitro (CTECFE Contact)
An amount of 0.9 mg of active compound is weighed out, and 1 ml of acetone is added.
Of this acetone solution, either […] are transferred directly into roll-necked test tubes or an aliquot is diluted with 4 parts of acetone 1:5. For its part, 250 μl of this dilution are pipetted into roll-necked test tubes, or the dilution is diluted further, etc., until the desired number of dilution steps is reached.
The roll-necked test tubes containing the solution of the active compound in acetone are immediately coated in a fume cupboard by 2 h of swing rotation at 30 rpm. After evaporation of the solvent, the active compound contained in the acetone gives, at the highest concentration tested, an active compound content of 500 g/ha (or 500 μg/dm^2) on the surface of the test tube.
10-20 Adult cat fleas (Ctenocephalides felis, fully sensitive laboratory strain) anesthetized with CO2 are transferred into the test tubes prepared in this manner, and the test tubes are closed with a plastic roll-necked lid provided with fine holes.
The test tubes are stored vertically at room temperature and humidity for 24 or 48 h. After 24 and 48 h, the activity of the active compound applied is determined by comparison with an acetone-treated control. Here, an observed normal activity for all fleas corresponds to 0% activity, a strongly restricted or uncoordinated (knock-down) movement or death of all fleas corresponds to 100% activity.

SMILES	knock-down activity [1] [%]	activity (spider mites killed) [2] [%]	activity (caterpillars killed) [3] [%]	knock-down activity (Aedes aegypti) [%]	activity (aphids killed) [4] [%]	activity (beetle larvae killed) [5] [%]	activity against cat fleas [6] [%]	other results
Cc1ccc(N=C2C=CC(C)(C)CC2=CSc2ccc(F)cc2)cc1 (mixture of isomers) [Example 1-44]	100	90	83	90	–	–	–	–
Cc1ccc(N=C2C(=CSc3ccc(F)cc3)C(C)c3cc(C)ccc32)cc1 (mixture of isomers) [Example 1-51]	100	–	100	85	100	100	–	–
COc1ccc2c(c1)C(C)C(=CSc1ccc(F)cc1)C2=Nc1ccc(C)cc1 (mixture of isomers) [Example 1-65]	100	100	100	85	100	100	–	–
CCOC1=CC(=CSc2ccc(F)cc2)C(=Nc2ccc(C)cc2)CC1 (mixture of isomers) [Example 1-96]	–	90	–	80	90	–	–	–
Cc1ccc(N=C2C(=CSc3ccccc3)COc3ccccc32)cc1 [Example 1-7]	100	100	100	85	100	100	100	–
C(Sc1ccccc1)=C1CCc2ccccc2C1=Nc1ccccc1 [Example 1-8]	85	100	100	–	–	100	100	–
Cc1ccc(N=C2C(=CSc3ccc(F)cc3)CC(C)c3ccccc32)cc1 (stereo not drawn) [Example 1-14]	95	100	100	–	100	100	100	–
Cc1ccc(N=C2C(=CSc3ccc(F)cc3)CCc3ccc(F)cc32)cc1 [Example 1-15]	–	100	100	–	100	100	100	–
Cc1ccc(N=C2C(=CSc3ccc(F)cc3)COc3ccc(F)cc32)cc1 [Example 1-23]	–	–	100	–	–	100	100	–
COc1ccc2c(c1)C(=Nc1ccc(C)cc1)C(=CSc1ccc(F)cc1)CC2 [Example 1-32]	–	100	100	–	–	–	100	–
Cc1ccc(N=C2C(=CSc3ccc(F)cc3)CCc3ccccc32)cc1C [Example 1-41]	100	80	100	95	90	100	–	–
Cc1ccc(N=C2C(=CSc3ccc(F)cc3)CCc3ccccc32)c(C)c1 [Example 1-43]	100	80	100	100	90	100	–	–
Cc1ccc(N=C2C(=CSc3ccc(F)cc3)CCc3cc(Cl)ccc32)cc1 [Example 1-47]	85	100	100	–	100	100	100	–
Cc1ccc(N=C2C(=CSc3ccc(F)cc3)CCc3nc(Cl)ccc32)cc1 [Example 1-54]	–	80	100	–	80	100	100	–
Cc1ccc(N=C2C(=CSc3ccc(F)cc3)CSc3cc(C)ccc32)cc1 [Example 1-76]	100	–	–	80	–	–	–	–
Cc1ccc(N=C2C(=CSc3ccc(F)cc3)COc3cccc(C)c32)cc1 [Example 1-86]	100	–	–	95	–	–	–	–
Cc1cccc(N=C2C(=CSc3ccc(F)cc3)CCc3ccccc32)c1 [Example 1-88]	100	100	100	85	100	100	–	–
CCOC1=CC(=Nc2ccc(C)cc2)C(=CSc2ccc(F)cc2F)CC1 [Example 1-98, N-(6-{[(2,4-Difluorophenyl)sulphanyl]methylene}-3-ethoxycyclohex-2-en-1-ylidene)-4-methylaniline]	–	–	–	–	–	–	–	pest or weed control at 500 g/ha [2]: 100%; pest or weed control at 500 g/ha [3]: 83%; mortality at 100 mg/m2 (Aedes aegypti): 80%
Cc1ccc(N=C2C(=CSc3cccc(F)c3)C3CCC2C3)cc1 (stereo not drawn) [Example 1-102]	100	–	–	100	–	–	–	–
Cc1ccc(N=C2C(=CSc3ccccc3F)C3CCC2C3)cc1 (stereo not drawn) [Example 1-103]	100	–	–	100	–	–	–	–
Cc1ccc(N=C2c3ccccc3CCC2C(Sc2ccccc2)Sc2ccccc2)cc1 (stereo not drawn) [Example 2-1]	100	–	–	100	–	–	–	pest or weed control at 500 g/ha ([4]; Myzus persicae, 144 h, read-out: activity (aphids killed)): 90%; mortality at 100 mg/m2 ([1]; Anopheles gambiae, read-out: activity (mortality in %)): 100%; pest or weed control at 500 g/ha [2]: 80%; pest or weed control at 500 g/ha [3]: 100%; pest or weed control at 500 g/ha ([5]; Phaedon cochleariae, 168 h, read-out: activity (beetle larvae killed)): 100%; mortality at 100 mg/m2 (Aedes aegypti): 100%
c1ccc(N=C2c3ccccc3CCC2C(Sc2ccccc2)Sc2ccccc2)cc1 (stereo not drawn) [Example 2-2]	100	–	–	100	–	–	–	–
Cc1ccc(N=C2c3ccccc3OCC2C(Sc2ccc(F)cc2)Sc2ccc(F)cc2)cc1 (stereo not drawn) [Example 2-11]	–	100	100	–	100	100	100	–

From US9055743B2, “Alpha, beta-unsaturated imines” (BAYER INTELLECTUAL PROPERTY GMBH, priority 2010, dated 2015)
